The numbers were not newly measured in PMC12308805, “Ultrahigh-Throughput Virtual Screening Strategies against PPI Targets: A Case Study of STAT Inhibitors” (Journal of Chemical Information and Modeling, 2025), which cites them from elsewhere.

SMILES strings stand for the structures.

One series has as its system STAT3. The note with it: sheet 6QHD_actives_decoys; retrospective screening set for STAT3 SH2 domain (PDB 6QHD); […]; ref DUD-E; cited from earlier work.
As to `COc1ccccc1[C@H](O)CNC(=O)c1cc(NS(=O)(=O)c2cccc([N+](=O)[O-])c2)ccc1O` [Decoy566], the Type result was “Inactive (Decoy)”.
In the case of `O=c1c(C[C@@H](O)CN2CCOCC2)c(O)n(C[C@H](O)CN2CCOCC2)c(=O)n1C[C@H](O)CN1CCOCC1` [Decoy567], the Type result is recorded as “Inactive (Decoy)”.
For the molecule `O=c1c(C[C@@H](O)CN2CCOCC2)c(O)n(C[C@@H](O)CN2CCOCC2)c(=O)n1C[C@H](O)CN1CCOCC1` [Decoy568], the Type entry was “Inactive (Decoy)”.
For the molecule `Cc1cc(NS(=O)(=O)c2ccc(NC(=O)CCCCC(=O)Nc3ccc(S(=O)(=O)Nc4cc(C)on4)cc3)cc2)no1` [Decoy592], the Type result was “Inactive (Decoy)”.
Turning to `COc1cc(/C=N\NC(=O)N/N=C/c2cc(OC)c(O)c([N+](=O)[O-])c2)cc([N+](=O)[O-])c1O` [Decoy599], the Type entry is reported as “Inactive (Decoy)”.

The series is the same for the next values; noted with them: sheet 6QHD_actives_decoys; retrospective screening set for STAT3 SH2 domain (PDB 6QHD); decoys generated with DUD-E and presumed inactive, not tested; ref DUD-E; cited from earlier work.
With `CCCOc1ccc(C(=O)C2=C(O)C(=O)N(CCN3CCOCC3)[C@@H]2c2ccc(O)c(OC)c2)cc1C` [Decoy564], the Type entry is reported as “Inactive (Decoy)”.
`CCCN(C(=O)c1cccc([N+](=O)[O-])c1)[C@H](C(=O)NCS(=O)(=O)c1ccc(C)cc1)c1ccc(O)cc1` [Decoy565]: the Type result is listed as “Inactive (Decoy)”.
Regarding `CC(=O)O[C@@H]1[C@H](O)[C@H](CO)O[C@H](OCC2=CO[C@H](OC(=O)CC(C)C)[C@H]3[C@H]2C[C@H](OC(C)=O)[C@@]3(C)O)[C@@H]1OC(C)=O` [Decoy569], the Type result is listed as “Inactive (Decoy)”.
Regarding `CCC/C=C/[C@@H](C(=O)NCS(=O)(=O)c1ccc(C)cc1)N(CCC)C(=O)c1cc([N+](=O)[O-])ccc1O` [Decoy570], the Type entry was “Inactive (Decoy)”.
Turning to `COc1ccc(S(=O)(=O)NNC(=O)CCCCC(=O)NNS(=O)(=O)c2ccc(OC)cc2)cc1` [Decoy571], the Type entry is “Inactive (Decoy)”.
Consider `O=C(/C=C/c1ccc(O)c2c1[C@@H](C(=O)O[C@@H](Cc1ccc(O)c(O)c1)C(=O)O)[C@H](c1ccc(O)c(O)c1)O2)O[C@H](Cc1ccc(O)c(O)c1)C(=O)O` [Decoy572], for which the Type entry was “Inactive (Decoy)”.
As for `COCCCNC(=O)C(=O)N/N=C/c1cc(I)c(OCC(=O)Nc2cccc(C(F)(F)F)c2)c(OC)c1` [Decoy573], the Type entry was “Inactive (Decoy)”.
Turning to `C=CCn1c(CNc2ccc(Cl)cc2)nnc1S[C@@H](C)C(=O)N/N=C/c1ccc([N+](=O)[O-])s1` [Decoy574], the Type entry is on record as “Inactive (Decoy)”.
As for `Cc1ccc(S(=O)(=O)NNc2ncnc(NNC(=O)c3ccccc3)c2[N+](=O)[O-])cc1` [Decoy575], the Type entry is recorded as “Inactive (Decoy)”.
For `CCCn1c(O)nnc1SCC1=C(C(=O)OCC)[C@H](c2ccc(Cl)cc2)NC(=O)N1` [Decoy576], the Type result is “Inactive (Decoy)”.
Regarding `Cc1ccc(S(=O)(=O)CNC(=O)[C@H](c2ccc([N+](=O)[O-])cc2)N(Cc2ccco2)C(=O)CO)cc1` [Decoy577], the Type entry is “Inactive (Decoy)”.
In the case of `CCCCOc1ccc([C@@H]2C(C(=O)c3nc4c(C)cccn4c3C)=C(O)C(=O)N2CCN(C)C)cc1OCC` [Decoy578], the Type entry was “Inactive (Decoy)”.
Turning to `CC[C@@H]1OC(=O)[C@@H](C)[C@@H](O[C@@H]2C[C@@](C)(OC)[C@H](O)[C@H](C)O2)[C@@H](C)[C@@H](O[C@H]2O[C@@H](C)C[C@@H](N(C)C)[C@H]2O)[C@](C)(O)C[C@@H](C)/C(=N\OCOCCOC)[C@@H](C)[C@@H](O)[C@]1(C)O` [Decoy579], the Type entry was “Inactive (Decoy)”.
In the case of `CC[C@H]1OC(=O)[C@@H](C)[C@@H](O[C@@H]2C[C@@](C)(OC)[C@H](O)[C@H](C)O2)[C@@H](C)[C@@H](O[C@H]2O[C@@H](C)C[C@@H](N(C)C)[C@H]2O)[C@](C)(O)C[C@@H](C)/C(=N\OCOCCOC)[C@@H](C)[C@@H](O)[C@@]1(C)O` [Decoy580], the Type entry is on record as “Inactive (Decoy)”.
With `CC[C@H]1OC(=O)[C@H](C)[C@@H](O[C@@H]2C[C@@](C)(OC)[C@H](O)[C@H](C)O2)[C@H](C)[C@H](O[C@H]2O[C@@H](C)C[C@@H](N(C)C)[C@H]2O)[C@](C)(O)C[C@@H](C)/C(=N\OCOCCOC)[C@H](C)[C@@H](O)[C@]1(C)O` [Decoy581], the Type entry was “Inactive (Decoy)”.
For `CC[C@H]1OC(=O)[C@H](C)[C@@H](O[C@@H]2C[C@](C)(OC)[C@H](O)[C@H](C)O2)[C@H](C)[C@H](O[C@H]2O[C@@H](C)C[C@@H](N(C)C)[C@H]2O)[C@](C)(O)C[C@@H](C)/C(=N\OCOCCOC)[C@H](C)[C@@H](O)[C@]1(C)O` [Decoy582], the Type result was “Inactive (Decoy)”.
On to `CC[N+]1=c2cc3c(cc2CCC1)=Nc1cc2c(cc1O3)N(CCCC(=O)NCCCCCNC(=O)CCCC[C@@H]1SC[C@@H]3NC(=O)N[C@@H]31)C(C)(C)C=C2CS(=O)(=O)[O-]` [Decoy583], for which the Type entry was “Inactive (Decoy)”.
As for `COc1cc(/C=N/Nc2nc(SCC(=O)Nc3ccc(C)cc3C)n[nH]2)cc(OC)c1OC` [Decoy584], the Type result is “Inactive (Decoy)”.
Regarding `CCOC(=O)Cn1nnnc1[C@@H](CC)N(Cc1ccc(F)cc1)Cc1cc2cc3c(cc2[nH]c1=O)OCCO3` [Decoy585], the Type result is “Inactive (Decoy)”.
Consider `COc1ccc(CCNc2ccc3nnc(CCNS(=O)(=O)c4ccc(C)cc4)n3n2)cc1OC` [Decoy586], for which the Type result is on record as “Inactive (Decoy)”.
Consider `CCOC(=O)CNC(=O)[C@@H](c1ccc(F)cc1)N(C(=O)c1snc(C(N)=O)c1N)c1ccccc1F` [Decoy587], for which the Type entry was “Inactive (Decoy)”.
In the case of `C[N+]1=C(/C=C/C=C2/N(CCCCC(=O)NCCOCCOCCNCCO[C@H]3O[C@@H](CO)[C@@H](O)[C@H](O)[C@@H]3O)c3ccccc3C2(C)C)C(C)(C)c2ccccc21` [Decoy588], the Type result was “Inactive (Decoy)”.
On to `C[N+]1=C(/C=C/C=C2/N(CCCCC(=O)NCCOCCOCCNCCO[C@H]3O[C@@H](CO)[C@@H](O)[C@H](O)[C@H]3O)c3ccccc3C2(C)C)C(C)(C)c2ccccc21` [Decoy589], for which the Type result was “Inactive (Decoy)”.
Take `CC(=O)OC[C@@H](OC(C)=O)[C@H](OC(C)=O)[C@H](OC(C)=O)[C@H](OC(C)=O)[C@@H]1N[C@H](C(=O)O)C(C)(C)S1` [Decoy590]: the Type result is on record as “Inactive (Decoy)”.
On to `O=C(CSc1n[nH]c(N/N=C/c2cc(Cl)ccc2O)n1)NNC(=O)c1ccc(Cl)cc1` [Decoy591], for which the Type entry is “Inactive (Decoy)”.
Regarding `CCOC(=O)c1[nH]c(C)c(C(=O)C2=C(O)C(=O)N(CCCN(C)C)[C@@H]2c2cc(OC)c(OC)c(OC)c2)c1C` [Decoy593], the Type result is on record as “Inactive (Decoy)”.
Turning to `CCOc1cc(/C=N/NC(=O)c2nnn(-c3nonc3N)c2CSC2=NCCS2)cc(Br)c1OCc1cccc(C)c1` [Decoy594], the Type entry is on record as “Inactive (Decoy)”.
For `CCOC(=O)CNC(=O)CN1CCOCCOCCN(CC(=O)NCC(=O)OCC)CCOCCOCC1` [Decoy595], the Type result was “Inactive (Decoy)”.
As for `CC[C@H]1OC(=O)[C@H](C)[C@@H](O[C@H]2OC[C@@](C)(OC)[C@@H](O)[C@@H]2C)[C@@H](C)[C@@H](O[C@H]2O[C@H](C)C[C@H](N(C)C)[C@H]2O)[C@](C)(O)C[C@H](C)/C(=N/O)[C@@H](C)[C@@H](O)[C@@]1(C)O` [Decoy596], the Type result is reported as “Inactive (Decoy)”.
Regarding `Cc1cc(C)n(CCCNC(=O)c2cc(=O)[nH]c3ccc(S(=O)(=O)N4CCOCC4)cc23)n1` [Decoy597], the Type result is recorded as “Inactive (Decoy)”.
In the case of `CC(C)(C)c1cc(Br)cc([C@@H](CN(C(=O)CN)C(=O)c2cc(O)cc(N=C3NCC(O)CN3)c2)C(=O)O)c1` (stereo partly drawn) [Decoy598], the Type entry is given as “Inactive (Decoy)”.
